The results in this text go back to patent publication US12448393B2, “Use of novel compound, for preventing, improving or treating amyotrophic lateral sclerosis” (PRG S&TECH INC., priority 2019, dated 2025).

Each structure is given as a SMILES string. Entries after “also recorded” stand apart in the source; their conditions may differ.

One data set has as its system normal human fibroblasts. The experiment in a line: Cell viability measurement (MTT), normal fibroblasts. The conditions noted are these: for cytotoxic effect in normal fibroblasts: MTT, FIG. 4E, FIG. 9B; for Toxicity (MTT): Table 1, cell type not given, neurons (FIG. 9A) and normal fibroblasts (FIG. 9B). Format: cell-based. The method, then:
(§1) HEK293 cells were purchased from American Type Culture Collection (ATCC, Manassas, VA, USA) and maintained at 37° C. and 5% CO2 in DMEM liquid medium including 10% fetal bovine serum and 1% penicillin-streptomycin. SK—N—SH cells were purchased from Korean Cell Line Bank (KCLB, Seoul, South Korea) and maintained in MEM medium including 10% fetal bovine serum, 1% antibiotic, 25 mM HEPES, and 300 mg/L L-Glu. Human fibroblasts (person) were purchased from Coriell Cell Repositories (New Jersey, USA) and maintained in EMEM including 15% FBS, 2 mM Glutamine, and 26 mM HEPES without antibiotics. Thapsigargin (ER calcium scavenger: CAS 67526-95-8) was purchased from Calbiochem (Darmstadt, Germany). CoCl2 (hypoxia-inducer: C8661) was purchased from Sigma Aldrich (St, Louis, Mo, USA).
(§2) To check cells viability, the cells were reacted with 0.5 mg/ml MTT solution (475989; Merck, Darmstadt, Germany) at 37° C. for 4 hours. After removing residual solution and washing with PBS, precipitate was dissolved in 200 μl DMSO, and quantified by measuring absorbance at 540 nm.

Data set [1] concerns SOD1. The experiment in a line: Western blot / native gel analysis of SOD1 aggregation. Type of data set: cell-based, human. The following applies: Table 1; effect on SOD1 aggregation, native / non-SDS-PAGE gel. How it is done:
Using RIPA buffer (50 mM Tris-Cl, pH 7.5, 150 mM NaCl, 1% NP-40, 0.1% SDS and […]) for SDS-PAGE and lysis buffer (50 mM Tris-Cl, pH 7.5, 150 mM NaCl, 0.3% NP-40) for Native-PAGE, proteins were extracted from cells. Samples were separated by the SDS-PAGE or the Native-PAGE and transferred to PVDF membrane. Blotted membrane was blocked with TBST buffer including 3% skim milk for 1 hour, and reacted with specific antibodies. The reacted antibodies were detected by ECL and X-ray film exposure. Antibodies used in the present disclosure are as follows: pan-SOD1 (GTX100554) was purchased from Genetex (California, USA). Misfolded SOD1-specific antibody (B8H10) was purchased from MediMabs (Montreal, Canada). Actin (sc-1616), GST (sc-138), and GFP (Green fluorescent protein; sc-8036) were purchased from Santa Cruz biotechnology (Santa Cruz, CA, USA). TDP-43 antibody (10782-2-AP) was purchased from Proteintech (Rosemont, IL, USA). Anti-FLAG (Sigma; F3165) was purchased from Sigma Aldrich (St, Louis, Mo, USA), and HRP-conjugated goat anti-mouse, goat anti-rabbit, and mouse anti-goat antibodies (Pierce, Thermo Fisher Scientific, Inc., Rockford, IL, USA) were used as secondary antibodies.
(§3) GFP-SOD1 (WT, G85R, G93A), non-tagged SOD1 (WT, A4V, G37R, G85R, G93A) and tdTomato-TDP43 expression vectors were purchased from Addgene (Cambridge, MA, USA). Transfection was performed using Jet-PEI reagent (JetPEI; Polyplus transfection, New York, NY, USA) according to the manufacturer's protocol. Briefly, vectors were mixed with JetPEI reagent in 150 mM NaCl buffer, and then mixture was reacted for 15 minutes. The mixture was added to cells in serum-free medium and reacted for 4 hours. After reaction, the cells were replaced with a culture medium supplemented with 10% FBS.

The test system of a further data set is SOD1^G93A-Tg mice. The experiment in a line: In vivo drug treatment of ALS model mice (grip strength, behaviour, histology, survival). Details: species or system mouse. The following applies: for effects in ALS model mice: FIGS. 11A and 11B, summary statements; for In vivo: Table 1, ALS model mice. How it is done:
An experiment was performed in a facility approved by the Association for Laboratory Animal Care Assessment and Accreditation in accordance with the animal policy approved by Busan National University. B6SJL-Tg (SOD1^G93A) mice were purchased from Jackson Laboratory (Stock No: 002726). All mice were maintained under temperature and light-controlled conditions (20˜23° C., light-dark cycle 12 hr-12 hr) and were provided with sterile food and water.
Vehicle (DMSO) and SLC-B036 (10 mg/kg, 20 mg/kg) were administered to 12-week-old or 14-week-old SOD1^G93A mice via intraperitoneal injection twice weekly for 6 weeks. Control mice were treated under the same conditions. For histological analysis, mice were sacrificed at 18 weeks. After dissection of mice, spinal cord was fixed with 4% paraformaldehyde for 48 hours according to basic tissue processing procedures, and embedded in a paraffin block. An embedded tissue (cervical region of the spinal cord) was cut into 5 μm with a Leica microtome, and transferred to an adhesive-coated slide (Marienfeld laboratory glassware, Germany). After deparaffinization and rehydration, the slide was stained with hematoxylin and eosin to determine the number of spinal nerves.
For behavioral experiment, grip strength was checked every 2 weeks using a grip strength meter. The mice were allowed to grasp a tension bar with their forelimbs, and then their tails were slowly pulled until they released the bar. To observe motility, respiration, and quadriplegia of the mice, image analysis was performed at the end of administration (18-20 weeks).

Data set [2] in a line: Pharmacokinetics (PK) analysis. Type of data set: in vivo. The conditions noted are these: for PK study BA: Table 1.
For data set [3], the system named is SOD1. As to the kind of experiment: Immunofluorescence staining of SOD1 aggregation and misfolded SOD1. Type of data set: cell-based, human. The following applies: Table 1; IF staining of SOD1. The method, then:
Cells on coverslip were washed with PBS, fixed with 4% PFA at room temperature for 30 minutes, and then infiltrated with 0.1% Triton X-100/PBS for 10 minutes. The cells were treated with blocking solution (anti-Human Antibody 1:500 dilution in PBS) for 1 hour, and then cells were reacted with anti-pan SOD1 (1:400 dilution), misfolded SOD1 (B8H10; 1:200 dilution in blocking solution) at 4° C. overnight. Finally, the cells were reacted with FITC and rhodamine-conjugated secondary antibody at 4° C. for 6 hours. Nuclei were stained with 4,6-diamidino-2-phenylindole (DAPI), and endoplasmic reticula (ERs) were stained with ER-Tracker Red dye for 10 minutes. The cells were washed 3 times with PBS, and then coverslips were mounted with mounting solution [H-5501; Vector Laboratories (Burlingame, CA, USA)] and analyzed by fluorescence microscopy (Zeiss).
as §3

Another data set concerns neurons. The experiment in a line: Cell viability measurement (MTT), neurons. Type of data set: cell-based. The conditions noted are these: FIG. 9A. The method, then: as §1, §2
Data set [4] relates to WT-SOD1 and mutant SOD1-GST (A4V, G37R, G85R, G93A). The experiment in a line: ELISA compound screening for binding inhibitor between WT-SOD1 and mutant SOD1. Also noted: species or system human. The conditions noted are these: Table 1; compounds at final concentration of 50 μM. The method, then:
For compound screening, the present inventors applied an ELISA assay system. To select a binding inhibitor between WT-SOD1 and mutant SOD1, the present inventors used 0.5% paraformaldehyde (PFA) to fix WT-SOD1 recombinant protein on a 96-well plate. The plate was dried, washed with phosphate-buffered saline (PBS), and reacted with the compounds at a final concentration of 50 μM, and then mutant SOD1-GST (A4V, G37R, G85R, G93A) proteins were added. After 2 hours of reaction, the 96-well plate was washed with PBS and blocked with 3% skim milk to prevent non specific reaction. The plate was reacted with anti-GST antibody (diluted at 1:10,000) for 1 hour, and then reacted with anti-mouse IgG-HRP (diluted at 1:50,000) for 1 hour. After washing twice, the plate was reacted with a 3,3′,5,5′-tetramethylbenzidine (TMB) solution (Calbiochem) for 30 minutes and a stop solution (1N H2SO4) for 30 minutes. Finally, the present inventors analyzed values using an ELISA reader (450 nm absorbance). Negative control (−; red line) was reacted without mutant SOD1, and positive control (+; blue line) was reacted with mutant SOD1 without the compounds.
To prepare recombinant proteins, human SOD1 (WT, A4V, G37R, G85R, G93A) was added to EcoRI and HindIII sites of pGEX-TEV vector, an improved vector made by adding a TEV protease cleavage site to pGEX-4T1 (Invitrogen). The recombinant proteins were expressed as GST-fusion proteins in Escherichia coli (E. coli) strain BL21 (DE3). The proteins were purified by glutathione-affinity chromatography.
In general terms: In an ELISA, binding on a coated surface is turned into a signal by an enzyme label.

On to `COc1cc(/C=C/CO[C@H]2Cc3cc4ccc(=O)oc4cc3OC2(C)C)ccc1O` [PRG-A-02, (S,E)-7-((3-(4-hydroxy-3-methoxyphenyl)allyl)oxy)-8,8-dimethyl-7,8-dihydro-2H,6H-pyrano[3,2-g]chromen-2-one], for which, in the data set with normal human fibroblasts, the “cytotoxic effect in normal fibroblasts” value was “did not exhibit cytotoxicity” and the “Toxicity (MTT)” value is “No”. For the same compound, in the data set with SOD1 [1], the “Western Blot” value is recorded as “Effect ○”. In addition, in the data set on SOD1^G93A-Tg mice, the “effects in ALS model mice” value is given as “good effects” and the In vivo entry is “Effect ○”. In addition, the “PK study BA” value in data set [2] is “(0.3%)”. In the data set on SOD1 [3], the Immuno-fluorscence entry is given as “Effect ○”. The cytotoxicity in neurons result in the data set on neurons is recorded as “did not exhibit cytotoxicity”. In data set [4], the ELISA entry is listed as “Effect ○”.

`CC1(C)Oc2cc3oc(=O)ccc3cc2C[C@@H]1OC(=O)/C=C/c1ccc(F)cc1` [PRG-A-03, (S)-8,8-dimethyl-2-oxo-7,8-dihydro-2H,6H-pyrano[3,2-g]chromen-7-yl (E)-3-(4-fluorophenyl) acrylate]: in the data set on normal human fibroblasts, the “cytotoxic effect in normal fibroblasts” value is “did not exhibit cytotoxicity” and the “Toxicity (MTT)” value is “No”. The “Western Blot” value with SOD1 [1] is “Effect ○”. Besides, in the data set on SOD1^G93A-Tg mice, the “effects in ALS model mice” value is recorded as “good effects” and the In vivo entry was “Effect ○”. Moreover, the “PK study BA” value in data set [2] is “(3.7%)”. Also, the Immuno-fluorscence result in the data set on SOD1 [3] was “Effect ○”. Further, in the data set with neurons, the cytotoxicity in neurons entry is “did not exhibit cytotoxicity”. Further, the ELISA result in data set [4] is “Effect ○”.

Turning to `COc1cc(/C=C/CO[C@H]2Cc3cc4ccc(=O)oc4cc3OC2(C)C)ccc1[N+](=O)[O-]` [PRG-A-04, (S,E)-7-((3-(3-methoxy-4-nitrophenyl)allyl)oxy)-8,8-dimethyl-7,8-dihydro-2H,6H-pyrano[3,2-g]chromen-2-one], in the data set with normal human fibroblasts, the “cytotoxic effect in normal fibroblasts” value is “did not exhibit cytotoxicity” and the “Toxicity (MTT)” value was “No”. Also, the “Western Blot” value in the data set on SOD1 [1] is listed as “Effect ○”. Further, in the data set with SOD1^G93A-Tg mice, the “effects in ALS model mice” value was “Excellent effects; also recorded: good effects” and the In vivo result was “Effect ○”. Further, the PK profile result in data set [2] (FIG. 10) is recorded as “appropriate PK profile”. Also, in data set [2], the “PK study BA” value came to 60.7%. In addition, the Immuno-fluorscence entry in the data set with SOD1 [3] is “Effect ○”. Besides, the cytotoxicity in neurons entry with neurons is recorded as “did not exhibit cytotoxicity”. Moreover, the ELISA result in data set [4] is “Effect ○”.
